B1: IRF3: interferon Regulatory Factor 3, over-expressed from lentivector (protein, UniProt Q14653 1-427, looked up)
Interferon regulatory factor 3: MGTPKPRILPWLVSQLDLGQLEGVAWVNKSRTRFRIPWKHGLRQDAQQEDFGIFQAWAEATGAYVPGRDKPDLPTWKRNFRSALNRKEGLRLAEDRSKDPHDPHKIYEFVNSGVGDFSQPDTSPDTNGGGSTSDTQEDILDELLGNMVLAPLPDPGPPSLAVAPEPCPQPLRSPSLDNPTPFPNLGPSENPLKRLLVPGEEWEFEVTAFYRGRQVFQQTISCPEGLRLVGSEVGDRTLPGWPVTLPDPGMSLTDRGVMSYVRHVLSCLGGGLALWRAGQWLWAQRLGHCHTYWAVSEELLPNSGHGPDGEVPKDKEGGVFDLGPFIVDLITFTEGSGRSPRYALWFCVGESWPQDQPWTKRLVMVKVVPTCLRALVEMARVGGASSLENTVDLHISNSHPLSLTSDQYKAYLQDLVEGMDFQGPGES

Tests used:
Type in all cases: cell-based, human
MDDC = experiment: IFN-I/III quantification (LEGENDplex) in MDDC after STING stimulation
Description: Plasmapheresis blood pockets were obtained from healthy adult volunteers after informed consent from the EFS (Establishment of French blood collection). Peripheral blood mononuclear cells (PBMCs) were isolated using Ficoll-Paque Plus (GE-17144003) and left overnight at 4° C. in RPMI (Thermo fischer #61870-010) with 10% heat-decomplemented fetal bovine serum (FBS, Eurobio #CVFSVFO0-01). CD14+ cells were enriched by positive selection (Miltenyi #130-050-201), the CD14 negative fraction was subsequently used to isolate total CD4+ T cells by negative selection (Stem Cell #17952). CD14+ cells were cultured in RPMI containing 10% FBS, 5% Penicillin-Streptomycin (PS, Thermo Fisher #10378-016), 50 μg/ml Gentamicin (Thermo Fisher #15750-045) and 10 mM HEPES (Thermo Fisher #15630-056). CD14+ cells were differentiated ex vivo into MDDC by supplementing the culture media with 50 ng/ml IL-4 (Miltenyi #130-093-922) and 10 ng/ml GM-CSF (Miltenyi #130-093-867). MDDC were used for experiments 3 or 4 days following the start of the culture. CD14+ cells were differentiated ex vivo into macrophages by adding 50 ng/ml MCSF (Miltenyi #130-096-492) to the culture media containing RPMI with 1% PS, 5% FBS and 5% human serum (Sigma #H4522). MDM were used 7 days following culture. Freshly isolated CD4+ T cells were cultured in X-VIVO 15 (Lonza #BE02-060F) and activated using anti-CD3 and anti-CD28 Dynabeads (fisher scientific #10548353) at the ratio of 1:5 (bead:cell). 100 U/ml human IL-2 (Immunotools #11340027) was added to cultures 2 days following TCR stimulation and media with IL-2 was replenished every 48 hours. To assess proliferation, freshly isolated CD4+ T cells were stained with cell proliferation dye (thermo fischer #65-0840-85) prior to TCR stimulation.
CD14+ cells were plated at 1 million cells/ml and transduced with equal volumes of freshly harvested SIV-VLPs and pTRIP-SFFV vectors in the presence of 8 μg/ml protamine (Sigma #P4020). CD4+ T cells were transduced with lentivectors 24 hours post-TCR stimulation in 100 μl of cells (0.2 million cells) and 100 μl of freshly harvested lentivirus in the presence of 8 μg/ml protamine. T cells were spinoculated at 1200 g for 2 hours at 25° C. 0.5 million THP-1 cells in 500 μl media (RPMI 10% FBS 1% PS) were transduced with 500 μl freshly harvested lentivirus in the presence of 8 μg/ml protamine. 1 μg/ml Puromycin (Invivogen #ant-pr-1) was added 2 days post-transduction when cells were transduced with pLKO.1-puro plasmid.
For stimulation of STING by extracellular ligands, 2.5 μg of ADUS100 (invivogen #tlrl-nacda2r-01) or 2′3′-cGAMP (cGAMP, invivogen #tlrl-nacga23-02) was added to 100,000 cells in 100 μl media either on freshly isolated primary cells or 3-4 days post differentiation for MDDC and 3 days post-TCR stimulation for CD4+ T cells. Cells and supernatant were harvested 18-24 hours post stimulation. For delivery of STING ligands after permeabilization, T cells were used 3 or 4 days post TCR stimulation and MDDC were used 3-4 days following differentiation. 150,000 cells were plated in round bottom 96-well plate. Media was removed by centrifugation and 20 μl 2× permeabilization buffer (100 mM HEPES, 200 mM KCl, 6 mM MgCl2, 0.2 mM DTT, 170 mM Sucrose, 2 mM ATP, 2 mM GTP, 0.4% bovine serum albumin (BSA), 20 μg/ml digitonin) and 20 μl cGAMP (12 μg/ml) was added to cells. 18 to 20 hours following stimulation supernatants and cells were harvested. Cells were stained with a fixable viability dye (Invitrogen #65-0865-14) and acquired on a FACSVerse (BD).
For experiments with conditioned media, CD4+ T cell- and MDDC-conditioned media refer to […] filtered conditioned media from cultures of activated CD4+ T cell and MDDC, respectively. CD4+ T cells were pretreated with 100 μl of MDDC-conditioned media or of fresh MDDC culture media, 24 hours prior to cGAMP stimulation. […]

CD19+ mKate2+A549 cells = experiment: CAR-T tumor spheroid killing assay
Description: CD19+ mKate2+A549 cells were produced by lentiviral transduction using pCDH-CMV-CD19 puro and ILV-EF1a-mKate-9-X01 (Flash therapeutics) lentivectors. 1,000 cells were plated 4 days prior to co-culture in low-cluster 96 well plates (Costar #7007) and allowed to form spheroids in DMEM 10% FBS 5% PS. Total CD3+ T cells were isolated by negative selection from PBMCs (Stemcell #17951) and stimulated with Dynabeads at a ratio of 1:3 (beads:cell). Cells were cultured at 1 million per ml in X-VIVO 15 with 5% PS, 5% decomplemented human serum (Sigma) and 50 μM 2-mercaptoethanol (GIBCO #31350-010). 24 hours following TCR stimulation 100,000 cells in 100 μl were co-transduced with 100 μl of lentivector viral particles (pTRIP-SFFV-GFP or pTRIP-SFFV-GFPRELAK5R) combined with the CAR lentivirus (rLV.EFA.19BBz, Flash therapeutics) at a multiplicity of infection (MOI) of 10 (corresponding usually to less than 1 μl). Spinoculation was carried out at 1200 g for 2 hours at 25° C. Cells were expanded for 48 hours with fresh media and 300 U/ml IL-2. 3 days following transduction T cells were stained with CD19 CAR detection reagent (miltenyi 130-115-965) for 15 minutes at 4° C., washed twice and subsequently with secondary antibody (invitrogen #S21374) for 30 minutes at 4° C. Cells were fixed and acquired on a FACSVerse (BD). The next day, Dynabeads were removed by magnetic separation and 250, 500 or 1,000 CAR+ cells were added per well of A549 spheroids in quadruplicates. Plates were then placed in an IncuCyteS3 and images were acquired using a 10× objective ([…]/pixel) every 3 hours for 5 to 6 days. Images were analysed using the IncuCyte S3 software. At the end of the culture, supernatants were harvested and assayed for IFN concentrations.

[1] = test system: IFNL1 and IFNB transcripts; experiment: RT-qPCR gene expression analysis in CD4+ T cells; settings: IRF3 over-expression in CD4+ T cells, data not shown
Description: RNA was extracted from 0.4-1 million cells using the Nucleospin RNA II kits (Macherey-Nagel #740955.50). cDNA was synthesized using random primers (invitrogen #48190-011) from 0.1 μg RNA using Superscript III Reverse transcriptase (fisher scientific #18080044). Real-time qPCR (RT-qPCR) was carried out in 20 μl reactions using SYBR Green I Master (Roche #4887352001). Primers used were as follows: […]

Molecule	increase in IFNλ1 at baseline (MDDC; MDDC, monocyte-derived macrophages (MDM) or THP-1 cells, data not shown)	IFN-I/III response to cGAMP compared to the control condition (MDDC; lentivector overexpression in MDDC, cGAMP 6 μg/ml, FIG. 2D)	IFNL1 at the end of co-culture (CD19+ mKate2+A549 cells; 6 days co-culture, all dilutions of CART and RELA K5R cells)	tumor growth with lower numbers of CAR T cells (CD19+ mKate2+A549 cells; FIG. 6F, left panel)	tumor spheroid size / elimination of tumor cells (CD19+ mKate2+A549 cells; co-culture 5-6 days, CAR-positive cell numbers normalized, FIG. 6E, 6F)	proliferation rates as cause of improved killing capacity (CD19+ mKate2+A549 cells; data not shown)	augmentation of cGAMP-mediated IFNλ1, IFNα2 and IFNβ production (MDDC; IRF3 over-expression in MDDC, cGAMP 6 μg/ml, FIG. 3B) [fold]	IFNL1 and IFNB transcripts in response to cGAMP [1]
RELA K5R: RELA mutant converting five lysine residues (K122, K123, K310, K314, K315) to arginine, expressed from lentivector	not observed	remained unchanged	detected	delay of tumor growth was also observed	significantly more efficiently eliminated	not due to increased proliferation rates	–	–
B1	–	–	–	–	–	–	10	increased

Source: US20250213614A1, “Modified RELA Protein for Inducing Interferon Expression and Engineered Immune Cells with Improved Interferon Expression” (Institut Curie, priority 2022, published 2025)
